Patent US12473304B2, “Heterocyclic PAD4 inhibitors” (BRISTOL-MYERS SQUIBB COMPANY, priority 2020, dated 2025)

The compounds below were run against human PAD4 (hPAD4) (Homo sapiens (Human), UniProt Q9UM07) (assay: RFMS Human PAD4 Functional Assay 1). Details: RFMS assay 1; 5 nM hPAD4, 250 μM BAEE substrate, 50 μM calcium, 37° C.
Format: biochemical
In short: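 Recombinant hPAD4 (5 nM) was preincubated with compound (top 50 μM, 0.5% DMSO) for 30 min at 37 °C, then reacted with 250 μM BAEE for 90 min at 37 °C in pH 7.5 HEPES buffer with 50 μM calcium and 5 μM TPEN. Product was derivatized with phenyl glyoxal and quantified by RapidFire MS.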

Sequence of human PAD4 (hPAD4) (Q9UM07 whole entry): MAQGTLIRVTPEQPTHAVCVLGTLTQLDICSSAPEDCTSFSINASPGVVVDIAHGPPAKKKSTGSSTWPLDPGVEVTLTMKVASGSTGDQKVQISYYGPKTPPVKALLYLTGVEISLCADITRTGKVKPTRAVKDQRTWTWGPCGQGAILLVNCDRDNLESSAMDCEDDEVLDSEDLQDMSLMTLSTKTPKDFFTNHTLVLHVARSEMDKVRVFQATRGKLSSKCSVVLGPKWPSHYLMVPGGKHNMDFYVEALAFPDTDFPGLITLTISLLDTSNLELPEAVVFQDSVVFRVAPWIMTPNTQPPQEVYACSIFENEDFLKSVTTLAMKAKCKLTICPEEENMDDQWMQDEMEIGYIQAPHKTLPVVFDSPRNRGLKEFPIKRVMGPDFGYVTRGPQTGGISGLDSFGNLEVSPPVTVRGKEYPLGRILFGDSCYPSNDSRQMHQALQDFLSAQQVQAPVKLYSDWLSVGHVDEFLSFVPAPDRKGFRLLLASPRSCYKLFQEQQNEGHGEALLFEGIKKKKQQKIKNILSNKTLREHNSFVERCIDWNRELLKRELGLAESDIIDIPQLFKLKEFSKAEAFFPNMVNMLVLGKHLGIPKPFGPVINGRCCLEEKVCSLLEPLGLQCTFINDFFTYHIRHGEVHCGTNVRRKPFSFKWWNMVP

IC50 | SMILES
10 nM | Cc1c(-c2cc3ccnc(OCCn4ccnc4)c3n2CC2CC2)nn2cc(C(=O)N3CCC[C@@H](N)C3)ccc12 [Example 617, (R)-(2-(7-(2-(1H-lmidazol-1-yl)ethoxy)-1-(cyclopropylmethyl)-1H-pyrrolo[2,3-c]pyridin-2-yl)-3-methylpyrazolo[1,5-a]pyridin-6-yl)(3-aminopiperidin-1-yl)methanone]
450 nM | COc1cc(C(=O)N2C[C@H](N)C[C@@H](F)C2)cn2nc(-c3cc4ccnc(OCCn5cnnc5)c4n3C)c(C)c12 [Example 620, (2-(7-(2-(4H-1,2,4-Triazol-4-yl)ethoxy)-1-methyl-1H-pyrrolo[2,3-c]pyridin-2-yl)-4-methoxy-3-methylpyrazolo[1,5-a]pyridin-6-yl)((3R,5R)-3-amino-5-fluoropiperidin-1-yl)methanone]
140 nM | COc1cc(C(=O)N2C[C@H](N)C[C@@H](F)C2)cn2nc(-c3sc4cccc(-c5cnn(CCO)c5)c4c3CC3CC3)c(C)c12 [Example 621, ((3R,5R)-3-Amino-5-fluoropiperidin-1-yl)(2-(3-(cyclopropylmethyl)-4-(1-(2-hydroxyethyl)-1H-pyrazol-4-yl)benzo[b]thiophen-2-yl)-4-methoxy-3-methylpyrazolo[1,5-a]pyridin-6-yl)methanone]

The next lines start with the compound.

SMILES | IC50
COc1cc(C(=O)N2CCC[C@@H](N)C2)cn2nc(-c3cc4ccnc(OCCn5ccnc5)c4n3CC3CC3)c(C)c12 [Example 598, (R)-(2-(7-(2-(1H-Imidazol-1-yl)ethoxy)-1-(cyclopropylmethyl)-1H-pyrrolo[2,3-c]pyridin-2-yl)-4-methoxy-3-methylpyrazolo[1,5-a]pyridin-6-yl)(3-aminopiperidin-1-yl)methanone] | 20 nM
COc1cc(C(=O)N2CCC[C@@H](N)C2)cn2nc(-c3cc4ccnc(OCCn5cnnc5)c4n3CC3CC3)c(C)c12 [Example 599, (R)-(2-(7-(2-(4H-1,2,4-Triazol-4-yl)ethoxy)-1-(cyclopropylmethyl)-1H-pyrrolo[2,3-c]pyridin-2-yl)-4-methoxy-3-methylpyrazolo[1,5-a]pyridin-6-yl)(3-aminopiperidin-1-yl)methanone] | 20 nM
COc1cc(C(=O)N2C[C@H](N)C[C@@H](F)C2)cn2nc(-c3cc4ccnc(OCCn5cnnc5)c4n3CC3CC3)c(C)c12 [Example 600, (2-(7-(2-(4H-1,2,4-Triazol-4-yl)ethoxy)-1-(cyclopropylmethyl)-1H-pyrrolo[2,3-c]pyridin-2-yl)-4-methoxy-3-methylpyrazolo[1,5-a]pyridin-6-yl)((3R,5R)-3-amino-5-fluoropiperidin-1-yl)methanone] | 30 nM
COc1cc(C(=O)N2CC3CCC2[C@@H]3N)cn2nc(-c3cc4ccnc(OC[C@H]5CCC(=O)N5)c4n3CC3CC3)c(C)c12 (stereo partly drawn) [Example 604, (5R)-5-(((2-(6-((7R)-7-Amino-2-azabicyclo[2.2.1]heptane-2-carbonyl)-4-methoxy-3-methylpyrazolo[1,5-a]pyridin-2-yl)-1-(cyclopropylmethyl)-1H-pyrrolo[2,3-c]pyridin-7-yl)oxy)methyl)pyrrolidin-2-one] | 30 nM
Cc1c(-c2cc3ccnc(OCCn4cnnc4)c3n2CC2CC2)nn2cc(C(=O)N3CCC[C@@H](N)C3)ccc12 [Example 609, (R)-(2-(7-(2-(4H-1,2,4-Triazol-4-yl)ethoxy)-1-(cyclopropylmethyl)-1H-pyrrolo[2,3-c]pyridin-2-yl)-3-methylpyrazolo[1,5-a]pyridin-6-yl)(3-aminopiperidin-1-yl)methanone] | 40 nM
Cc1c(-c2cc3ccnc(OCCn4cncn4)c3n2CC2CC2)nn2cc(C(=O)N3C[C@H](N)C[C@@H](F)C3)ccc12 [Example 610, (2-(7-(2-(1H-1,2,4-Triazol-1-yl)ethoxy)-1-(cyclopropylmethyl)-1H-pyrrolo[2,3-c]pyridin-2-yl)-3-methylpyrazolo[1,5-a]pyridin-6-yl)((3R,5R)-3-amino-5-fluoropiperidin-1-yl)methanone] | 430 nM
Cc1c(-c2cc3ccnc(OCCn4ccnc4C)c3n2CC2CC2)nn2cc(C(=O)N3C[C@H](N)C[C@@H](F)C3)ccc12 [Example 611, ((3R,5R)-3-Amino-5-fluoropiperidin-1-yl)(2-(1-(cyclopropylmethyl)-7-(2-(2-methyl-1H-imidazol-1-yl)ethoxy)-1H-pyrrolo[2,3-c]pyridin-2-yl)-3-methylpyrazolo[1,5-a]pyridin-6-yl)methanone] | 1560 nM
Cc1c(-c2cc3ccnc(OCCn4ccnc4C)c3n2CC2CC2)nn2cc(C(=O)N3CCC[C@@H](N)C3)ccc12 [Example 612, (R)-(3-Aminopiperidin-1-yl)(2-(1-(cyclopropylmethyl)-7-(2-(2-methyl-1H-imidazol-1-yl)ethoxy)-1H-pyrrolo[2,3-c]pyridin-2-yl)-3-methylpyrazolo[1,5-a]pyridin-6-yl)methanone] | 2960 nM
Cc1c(-c2cc3ccnc(OCCn4cnnc4)c3n2CC2CC2)nn2cc(C(=O)N3C[C@H](N)C[C@@H](F)C3)ccc12 [Example 613, (2-(7-(2-(4H-1,2,4-Triazol-4-yl)ethoxy)-1-(cyclopropylmethyl)-1H-pyrrolo[2,3-c]pyridin-2-yl)-3-methylpyrazolo[1,5-a]pyridin-6-yl)((3R,5R)-3-amino-5-fluoropiperidin-1-yl)methanone] | 250 nM
Cc1c(-c2cc3ccnc(OCCn4ccnc4)c3n2CC2CC2)nn2cc(C(=O)N3C[C@H](N)C[C@@H](F)C3)ccc12 [Example 616, (2-(7-(2-(1H-Imidazol-1-yl)ethoxy)-1-(cyclopropylmethyl)-1H-pyrrolo[2,3-c]pyridin-2-yl)-3-methylpyrazolo[1,5-a]pyridin-6-yl)((3R,5R)-3-amino-5-fluoropiperidin-1-yl)methanone] | 20 nM

Each compound was assayed against recombinant human PAD4 (Homo sapiens (Human), UniProt Q9UM07) (assay: RFMS Human PAD4 Functional Assay 2). Details: RFMS assay 2; 35 nM recombinant human PAD4, 500 μM TSTGGRQGSHH peptide, 2 mM CaCl2, room temperature 30 minutes; read-out: hPAD4 RFMS IC50.
Sequence of recombinant human PAD4 (Q9UM07 whole entry): as above
Format: biochemical
Procedure: RFMS Human PAD4 Functional Assay 2: Compound Preparation: • Stock compounds were dissolved and stored in 100% DMSO. Compound solutions were prepared via serial dilution at 3-fold intervals in DMSO with top compound concentration at 20 μM in each assay. 0.25 μl of compound solution was transferred from the compound plate to the assay plate by using an acoustic dispenser. Final Assay Conditions: • Total reaction volume: 25 μl • Assay buffer: […] pH 7.4, 200 mM NaCl, 2 mM CaCl2, 5 mM DTT • 35 nM recombinant human PAD4 • 500 μM TSTGGRQGSHH peptide • […] DMSO • Stop solution: 10% formic acid
Reaction mixtures were incubated at room temperature for 30 minutes. 10 μl each of the reaction mixtures was then mixed with 40 μl of 10% formic acid in a microtiter plate. The plate was frozen at −80° C. before shipping out on dry ice for RapidFire mass spectroscopy analysis.
Thawed samples were loaded onto the Rapid Fire 300 system (Agilent) wherein they were first sipped for 250 ms and then loaded onto an Agilent “C” (C18) cartridge using a mobile phase of water containing 0.09% formic acid/0.01% trifluoroacetic acid for 3000 ms desalting flowing at a rate of 1.5 ml/min. Once the samples were loaded and washed, a mobile phase of acetonitrile containing 0.09% formic acid/0.01% trifluoroacetic acid was used to elute the samples directly onto a Sciex API4000 triple quadrupole mass spectrometer for 3000 ms at a flow rate of 1.25 ml/min.
MRM transitions for substrate and product were monitored in positive ESI mode at m/z=562.3/969.7 and m/z=562.8/541.3 respectively. The dwell time for each transition was set at 100 ms, and the ESI voltage was used at 5500 with a source temperature of 650° C. Extracted ion peaks for each transition were integrated using the Rapid Fire Integrator software.

IC50 | SMILES
1200 nM | COc1cc(C(=O)N2CCC[C@@H](N)C2)cc2sc(-c3cc4ccccc4n3CC3CC3)c(CCO)c12 [Example 622, (R)-(3-aminopiperidin-1-yl)(2-(1-(cyclopropylmethyl)-1H-indol-2-yl)-3-(2-hydroxyethyl)-4-methoxybenzo[b]thiophen-6-yl)methanone]
395 nM | COc1cc(C(=O)N2C[C@H](N)C[C@@H](F)C2)cc2sc(-c3cc4ccccc4n3CC3CC3)c(CCO)c12 [Example 623, ((3R,5R)-3-amino-5-fluoropiperidin-1-yl)(2-(1-(cyclopropylmethyl)-1H-indol-2-yl)-3-(2-hydroxyethyl)-4-methoxybenzo[b]thiophen-6-yl)methanone]
383 nM | COc1ccc2cc(-c3sc4cc(C(=O)N5C[C@H](N)C[C@@H](F)C5)cc(OC)c4c3CCO)n(CC3CC3)c2c1 [Example 624, ((3R,5R)-3-amino-5-fluoropiperidin-1-yl)(2-(1-(cyclopropylmethyl)-6-methoxy-1H-indol-2-yl)-3-(2-hydroxyethyl)-4-methoxybenzo[b]thiophen-6-yl)methanone]
2040 nM | COc1cc(C(=O)N2CCC[C@@H](N)C2)cc2sc(-c3cc4ccccc4n3CC3CC3)c(CCN)c12 [Example 625, (R)-(3-(2-aminoethyl)-2-(1-(cyclopropylmethyl)-1H-indol-2-yl)-4-methoxybenzo[b]thiophen-6-yl)(3-aminopiperidin-1-yl)methanone]
849 nM | Cc1c(-c2cc3ccccc3n2CC2CC2)sc2cc(C(=O)N3CCC[C@@H](N)C3)cc(CCO)c12 [Example 626, (R)-(3-aminopiperidin-1-yl)(2-(1-(cyclopropylmethyl)-1H-indol-2-yl)-4-(2-hydroxyethyl)-3-methylbenzo[b]thiophen-6-yl)methanone]
879 nM | Cc1c(-c2cc3ccccc3n2CC2CC2)sc2cc(C(=O)N3CCC[C@@H](N)C3)cc(CO)c12 [Example 627, (R)-(3-Aminopiperidin-1-yl)(2-(1-(cyclopropylmethyl)-1H-indol-2-yl)-4-(hydroxymethyl)-3-methylbenzo[b]thiophen-6-yl)methanone]
322 nM | COc1ccc2cc(-c3oc4cc(C(=O)N5C[C@H](N)C[C@@H](F)C5)cc(OC)c4c3CCO)n(CC3CC3)c2c1 [Example 628, ((3R,5R)-3-Amino-5-fluoropiperidin-1-yl)(2-(1-(cyclopropylmethyl)-6-methoxy-1H-indol-2-yl)-3-(2-hydroxyethyl)-4-methoxybenzofuran-6-yl)methanone]
785 nM | COc1cc(C(=O)N2C[C@H](N)C[C@@H](F)C2)cc2oc(-c3cc4cccnc4n3CC3CC3)c(CCO)c12 [Example 629, ((3R,5R)-3-amino-5-fluoropiperidin-1-yl)(2-(1-(cyclopropylmethyl)-1H-pyrrolo[2,3-b]pyridin-2-yl)-3-(2-hydroxyethyl)-4-methoxybenzofuran-6-yl)methanone]
